For assay [1], the target named is Tyrosine-protein kinase Yes (Homo sapiens) (UniProt P07947). Kind of assay: Inhibition of recombinant human GST-tagged full length YES expressed in baculovirus expression system using Tyr 02 as substrate at 0.1 uM incubated for 60 mins by Z'-Lyte assay relative to control.
Assay [2] has as its target T1, Interleukin-1 receptor-associated kinase 4 (Homo sapiens) (UniProt Q9NWZ3).
T1 sequence (whole entry): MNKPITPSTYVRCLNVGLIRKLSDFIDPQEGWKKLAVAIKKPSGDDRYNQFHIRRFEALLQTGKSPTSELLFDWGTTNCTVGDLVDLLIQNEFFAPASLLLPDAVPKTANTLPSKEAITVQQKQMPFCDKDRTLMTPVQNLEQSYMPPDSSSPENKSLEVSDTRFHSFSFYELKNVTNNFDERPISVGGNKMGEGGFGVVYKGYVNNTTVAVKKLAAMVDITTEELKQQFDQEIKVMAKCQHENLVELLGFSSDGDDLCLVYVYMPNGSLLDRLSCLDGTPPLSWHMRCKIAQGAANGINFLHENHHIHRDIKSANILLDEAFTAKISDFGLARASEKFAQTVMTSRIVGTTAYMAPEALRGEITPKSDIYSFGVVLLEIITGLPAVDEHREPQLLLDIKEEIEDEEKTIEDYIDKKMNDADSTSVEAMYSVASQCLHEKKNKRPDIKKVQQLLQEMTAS
Kind of assay: Inhibition of recombinant human His-tagged full length IRAK4 expressed in baculovirus expression system using Ser/Thr 07 as substrate at 0.1 uM incubated for 60 mins by Z'-Lyte assay relative to control.

In assay [3] the target is High affinity nerve growth factor receptor (Homo sapiens) (UniProt P04629). Kind of assay: Inhibition of recombinant human His-tagged TRKA (441 to 796 residues) expressed in baculovirus expression system using Tyr 01 as substrate at 0.1 uM incubated for 60 mins by Z'-Lyte assay relative to control.
Assay [4] deals with Tyrosine-protein kinase Fyn (Homo sapiens) (UniProt P06241). As to the kind of experiment: Inhibition of recombinant human C-terminal His-tagged full length FYN expressed in baculovirus expression system using Tyr 02 as substrate at 0.1 uM incubated for 60 mins by Z'-Lyte assay relative to control.
Assay [5] relates to RAF proto-oncogene serine/threonine-protein kinase (Homo sapiens), P04049 [Y340D,Y341D]. As to the kind of experiment: Inhibition of recombinant human GST-tagged RAF1 Y340D/Y341D double mutant (306 to 648 residues) expressed in baculovirus expression system using Ser/Thr 03 as substrate at 0.1 uM incubated for 60 mins by Z'-Lyte assay relative to control.
Assay [6] concerns the target T2, Inhibitor of nuclear factor kappa-B kinase subunit epsilon (Homo sapiens) (UniProt Q14164).
T2 sequence (whole entry): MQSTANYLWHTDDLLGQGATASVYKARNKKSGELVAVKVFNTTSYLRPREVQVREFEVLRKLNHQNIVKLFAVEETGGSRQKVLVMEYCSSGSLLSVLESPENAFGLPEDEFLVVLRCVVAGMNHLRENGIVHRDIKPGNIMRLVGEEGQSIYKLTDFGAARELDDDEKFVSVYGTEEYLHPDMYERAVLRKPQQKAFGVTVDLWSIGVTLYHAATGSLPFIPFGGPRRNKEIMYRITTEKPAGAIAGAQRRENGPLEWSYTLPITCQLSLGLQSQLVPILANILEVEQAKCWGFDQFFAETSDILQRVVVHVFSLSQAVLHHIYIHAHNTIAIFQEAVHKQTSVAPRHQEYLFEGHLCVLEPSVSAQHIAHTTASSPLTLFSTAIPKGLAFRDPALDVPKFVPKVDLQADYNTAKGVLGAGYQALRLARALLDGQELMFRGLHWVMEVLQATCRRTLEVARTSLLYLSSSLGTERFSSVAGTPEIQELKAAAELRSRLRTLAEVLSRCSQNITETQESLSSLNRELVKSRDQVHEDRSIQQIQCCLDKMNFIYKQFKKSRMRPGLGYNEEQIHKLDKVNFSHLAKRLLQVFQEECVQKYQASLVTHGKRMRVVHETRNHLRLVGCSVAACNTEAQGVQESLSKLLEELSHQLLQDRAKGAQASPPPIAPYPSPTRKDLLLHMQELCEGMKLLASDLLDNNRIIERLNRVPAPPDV
Kind of assay: Inhibition of recombinant human GST-tagged full length IKKepsilon expressed in baculovirus expression system using Ser/Thr 11 as substrate at 0.1 uM incubated for 60 mins by Z'-lyte assay relative to control.

The target of assay [7] is T3, Phosphatidylinositol 4,5-bisphosphate 3-kinase catalytic subunit delta isoform (Homo sapiens) (UniProt O00329).
T3 sequence (whole entry): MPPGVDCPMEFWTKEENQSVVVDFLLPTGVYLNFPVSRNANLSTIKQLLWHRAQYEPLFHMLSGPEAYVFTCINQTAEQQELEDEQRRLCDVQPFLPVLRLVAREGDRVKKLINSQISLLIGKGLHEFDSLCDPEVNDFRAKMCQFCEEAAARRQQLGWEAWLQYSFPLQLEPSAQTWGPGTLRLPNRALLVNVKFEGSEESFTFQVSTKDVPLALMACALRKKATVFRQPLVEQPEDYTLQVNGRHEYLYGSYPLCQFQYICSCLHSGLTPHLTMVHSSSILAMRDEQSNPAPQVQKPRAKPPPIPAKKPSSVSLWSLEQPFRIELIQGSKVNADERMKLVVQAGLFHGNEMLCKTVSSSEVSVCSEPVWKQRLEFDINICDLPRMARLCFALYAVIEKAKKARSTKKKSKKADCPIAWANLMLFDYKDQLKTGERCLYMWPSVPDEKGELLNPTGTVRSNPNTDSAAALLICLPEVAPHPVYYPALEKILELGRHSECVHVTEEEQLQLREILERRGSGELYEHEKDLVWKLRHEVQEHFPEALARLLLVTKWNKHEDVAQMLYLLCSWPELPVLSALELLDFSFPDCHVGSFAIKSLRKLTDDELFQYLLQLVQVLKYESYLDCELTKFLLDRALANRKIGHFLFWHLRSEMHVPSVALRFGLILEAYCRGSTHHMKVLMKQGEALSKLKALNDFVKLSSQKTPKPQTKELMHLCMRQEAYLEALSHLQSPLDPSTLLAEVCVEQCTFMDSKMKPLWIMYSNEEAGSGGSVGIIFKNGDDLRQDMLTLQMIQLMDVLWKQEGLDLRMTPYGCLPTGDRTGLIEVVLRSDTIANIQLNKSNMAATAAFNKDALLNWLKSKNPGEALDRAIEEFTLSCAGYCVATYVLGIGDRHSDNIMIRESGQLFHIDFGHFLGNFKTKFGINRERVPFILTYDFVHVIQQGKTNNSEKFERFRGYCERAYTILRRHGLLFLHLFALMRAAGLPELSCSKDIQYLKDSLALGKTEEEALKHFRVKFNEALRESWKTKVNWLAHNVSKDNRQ
Kind of assay: Inhibition of recombinant human His-tagged full length PI3Kdelta expressed in baculovirus expression system using PIP:PS as substrate at 0.1 uM incubated for 60 mins by Adapta assay relative to control.

Assay [8] addresses Epidermal growth factor receptor (Homo sapiens) (UniProt P00533). As to the kind of experiment: Inhibition of recombinant human GST-tagged EGFR (668 to 1210 residues) expressed in baculovirus expression system using Tyr 4 as substrate at 0.1 uM incubated for 60 mins by Z'-Lyte assay relative to control.

Sequence of Tyrosine-protein kinase Yes (Homo sapiens) (P07947 2-543 limits assumed): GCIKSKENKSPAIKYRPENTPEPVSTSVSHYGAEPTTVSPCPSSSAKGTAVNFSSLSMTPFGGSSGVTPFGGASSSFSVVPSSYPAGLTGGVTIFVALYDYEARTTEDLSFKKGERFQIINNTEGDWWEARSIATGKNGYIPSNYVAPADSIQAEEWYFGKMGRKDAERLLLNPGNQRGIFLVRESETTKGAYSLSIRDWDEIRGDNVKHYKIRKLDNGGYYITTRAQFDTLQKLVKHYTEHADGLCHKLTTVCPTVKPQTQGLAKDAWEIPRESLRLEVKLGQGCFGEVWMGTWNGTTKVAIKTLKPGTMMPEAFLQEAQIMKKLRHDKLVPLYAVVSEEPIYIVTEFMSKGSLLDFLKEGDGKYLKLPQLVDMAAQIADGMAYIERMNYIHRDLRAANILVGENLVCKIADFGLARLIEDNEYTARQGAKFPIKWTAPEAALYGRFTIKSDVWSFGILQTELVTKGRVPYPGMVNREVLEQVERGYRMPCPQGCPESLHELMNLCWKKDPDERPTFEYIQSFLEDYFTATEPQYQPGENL
Sequence of RAF proto-oncogene serine/threonine-protein kinase (Homo sapiens), P04049 [Y340D,Y341D] (P04049 whole entry Y340D/Y341D, the tested form may be a part): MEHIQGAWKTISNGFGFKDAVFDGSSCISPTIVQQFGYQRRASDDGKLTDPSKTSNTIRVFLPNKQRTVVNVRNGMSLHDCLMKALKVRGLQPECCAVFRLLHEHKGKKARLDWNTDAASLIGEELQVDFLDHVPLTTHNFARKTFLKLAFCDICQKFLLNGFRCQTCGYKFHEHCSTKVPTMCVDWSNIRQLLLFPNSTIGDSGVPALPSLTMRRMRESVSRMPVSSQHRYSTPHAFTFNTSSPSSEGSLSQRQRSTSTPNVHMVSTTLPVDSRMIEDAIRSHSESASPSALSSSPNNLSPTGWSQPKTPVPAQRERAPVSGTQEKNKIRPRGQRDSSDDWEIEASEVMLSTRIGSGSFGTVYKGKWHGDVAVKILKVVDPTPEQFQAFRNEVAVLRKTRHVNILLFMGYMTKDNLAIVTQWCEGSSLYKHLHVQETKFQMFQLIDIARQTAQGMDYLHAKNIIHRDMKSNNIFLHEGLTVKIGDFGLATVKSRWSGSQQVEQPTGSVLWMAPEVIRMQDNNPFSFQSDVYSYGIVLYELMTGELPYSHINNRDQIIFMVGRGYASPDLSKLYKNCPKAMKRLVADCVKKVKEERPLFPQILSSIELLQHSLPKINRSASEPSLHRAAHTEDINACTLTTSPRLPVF
Sequence of High affinity nerve growth factor receptor (Homo sapiens) (P04629 33-796 limits assumed): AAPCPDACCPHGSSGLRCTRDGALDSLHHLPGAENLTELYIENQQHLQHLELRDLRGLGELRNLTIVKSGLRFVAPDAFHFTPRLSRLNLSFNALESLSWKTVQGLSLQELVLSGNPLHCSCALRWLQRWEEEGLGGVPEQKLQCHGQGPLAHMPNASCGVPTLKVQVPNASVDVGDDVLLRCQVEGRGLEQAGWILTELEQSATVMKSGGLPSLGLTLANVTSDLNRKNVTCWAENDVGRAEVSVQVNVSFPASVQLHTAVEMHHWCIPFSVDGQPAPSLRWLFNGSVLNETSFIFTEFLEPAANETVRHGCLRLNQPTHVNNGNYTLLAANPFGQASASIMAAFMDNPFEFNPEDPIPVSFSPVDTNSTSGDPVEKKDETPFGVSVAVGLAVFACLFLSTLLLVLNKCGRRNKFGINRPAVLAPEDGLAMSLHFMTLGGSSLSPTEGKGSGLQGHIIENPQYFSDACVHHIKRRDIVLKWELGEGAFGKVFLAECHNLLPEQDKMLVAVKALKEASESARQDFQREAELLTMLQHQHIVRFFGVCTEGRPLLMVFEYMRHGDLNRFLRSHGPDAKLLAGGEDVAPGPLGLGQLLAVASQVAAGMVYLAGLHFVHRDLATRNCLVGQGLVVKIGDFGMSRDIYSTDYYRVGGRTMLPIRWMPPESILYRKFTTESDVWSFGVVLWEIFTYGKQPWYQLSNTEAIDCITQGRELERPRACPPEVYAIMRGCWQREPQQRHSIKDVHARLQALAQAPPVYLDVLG
Sequence of Epidermal growth factor receptor (Homo sapiens) (P00533 whole entry, the tested form may be a part): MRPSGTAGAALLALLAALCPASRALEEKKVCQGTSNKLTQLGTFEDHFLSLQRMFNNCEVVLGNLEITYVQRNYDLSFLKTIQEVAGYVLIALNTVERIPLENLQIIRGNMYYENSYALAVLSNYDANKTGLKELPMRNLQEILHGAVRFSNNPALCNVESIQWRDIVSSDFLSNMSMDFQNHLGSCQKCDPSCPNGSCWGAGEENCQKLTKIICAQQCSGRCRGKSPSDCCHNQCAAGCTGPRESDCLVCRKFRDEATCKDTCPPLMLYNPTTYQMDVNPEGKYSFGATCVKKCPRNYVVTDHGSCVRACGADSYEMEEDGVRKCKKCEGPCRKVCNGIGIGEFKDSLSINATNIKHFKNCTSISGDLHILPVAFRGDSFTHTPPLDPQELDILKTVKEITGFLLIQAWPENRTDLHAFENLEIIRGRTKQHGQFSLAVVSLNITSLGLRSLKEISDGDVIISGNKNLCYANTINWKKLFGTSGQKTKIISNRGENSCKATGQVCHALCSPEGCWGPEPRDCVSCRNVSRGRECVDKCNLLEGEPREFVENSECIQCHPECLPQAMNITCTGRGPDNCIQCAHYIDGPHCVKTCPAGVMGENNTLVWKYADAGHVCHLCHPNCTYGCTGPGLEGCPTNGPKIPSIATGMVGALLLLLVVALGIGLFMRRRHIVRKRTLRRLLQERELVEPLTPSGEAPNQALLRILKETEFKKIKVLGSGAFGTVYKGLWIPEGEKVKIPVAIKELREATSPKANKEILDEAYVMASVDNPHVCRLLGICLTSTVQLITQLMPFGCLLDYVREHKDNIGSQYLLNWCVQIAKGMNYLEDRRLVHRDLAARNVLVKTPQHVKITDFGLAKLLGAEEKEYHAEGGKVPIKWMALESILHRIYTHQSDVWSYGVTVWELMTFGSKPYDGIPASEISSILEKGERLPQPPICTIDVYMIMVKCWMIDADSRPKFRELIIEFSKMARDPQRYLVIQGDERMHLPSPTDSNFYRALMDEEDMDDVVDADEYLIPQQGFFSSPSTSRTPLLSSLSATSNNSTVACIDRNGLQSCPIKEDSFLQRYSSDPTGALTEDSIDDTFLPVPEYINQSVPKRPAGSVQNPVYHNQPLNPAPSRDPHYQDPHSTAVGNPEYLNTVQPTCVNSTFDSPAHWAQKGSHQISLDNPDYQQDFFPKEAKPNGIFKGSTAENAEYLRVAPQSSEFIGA
Sequence of Tyrosine-protein kinase Fyn (Homo sapiens) (P06241 2-537 limits assumed): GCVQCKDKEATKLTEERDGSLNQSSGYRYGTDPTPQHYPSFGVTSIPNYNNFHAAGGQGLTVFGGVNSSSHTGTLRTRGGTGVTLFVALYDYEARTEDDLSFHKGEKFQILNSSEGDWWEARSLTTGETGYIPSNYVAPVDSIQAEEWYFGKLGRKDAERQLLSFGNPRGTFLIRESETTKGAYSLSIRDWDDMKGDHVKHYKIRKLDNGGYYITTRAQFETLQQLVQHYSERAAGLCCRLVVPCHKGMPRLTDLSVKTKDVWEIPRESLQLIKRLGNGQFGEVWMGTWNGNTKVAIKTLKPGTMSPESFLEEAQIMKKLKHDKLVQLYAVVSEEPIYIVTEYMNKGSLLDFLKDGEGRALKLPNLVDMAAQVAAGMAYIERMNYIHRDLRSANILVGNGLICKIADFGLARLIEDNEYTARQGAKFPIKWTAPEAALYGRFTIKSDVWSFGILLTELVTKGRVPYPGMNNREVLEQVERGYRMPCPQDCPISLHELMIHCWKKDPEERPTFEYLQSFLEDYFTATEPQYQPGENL

As for `O=C(Nc1c[nH]nc1-c1cc(Cl)ccc1OC(F)F)c1cnn2cccnc12`, the inhibition in assay [1] is 32%; in assay [2], 0%; in assay [3], 59%; in assay [4], 95%; in assay [5], 9%; in assay [6], 8%. The inhibition was found to be 7% in assay [7] and 0% in assay [8].

For the compound `Cn1cc(NC(=O)c2cnn3cccnc23)c(-c2cc(Cl)ccc2OC(F)F)n1`, the inhibition in assay [1] is 30%; in assay [2], -4%; in assay [3], 44%; in assay [4], 89%; in assay [5] it was 3%; in assay [6], 5%. In addition, the inhibition is 6% in assay [7] and 2% in assay [8].

With `O=C(Nc1c[nH]nc1-c1cc2ccccc2cc1OC(F)F)c1cnn2cccnc12`, the inhibition is 33% in assay [1]; 4% in assay [2]; 23% in assay [3]; 78% in assay [4]; 7% in assay [5]; 3% in assay [6]. In addition, the inhibition in assay [7] and in assay [8] was 6% throughout.

(Values after ChEMBL document CHEMBL4665643 (Bioorg Med Chem Lett, 2019).)
